Test results published in ChEMBL document CHEMBL4354856, “Discovery of 4,6-O-Thenylidene-β-d-glucopyranoside-(2″-acetamido, 3″-acetyl-di-S-5-fluorobenzothizole/5-fluorobenzoxazole)-4'-demethylepipodophyllotoxin as Potential Less Toxic Antitumor Candidate Drugs by Reducing DNA Damage and Less Inhibition of PI3K” (J Med Chem, 2020).

Experiments:
[1] = Cytotoxicity against human H8 cells assessed as inhibition of cell proliferation measured after 48 hrs by MTT assay; assay type: cell-based
A549 = assay: Anticancer activity against human A549 cells assessed as inhibition of cell proliferation measured after 48 hrs by MTT assay; assay type: functional, cell-based; details: A549, 48 h
L02 = assay: Cytotoxicity against human HL7702 cells assessed as inhibition of cell proliferation measured after 48 hrs by MTT assay; assay type: cell-based; details: L02, 48 h
HepG2 = assay: Anticancer activity against human HepG2 cells assessed as inhibition of cell proliferation measured after 48 hrs by MTT assay; assay type: functional, cell-based; details: HepG2, 48 h
HMEC = assay: Cytotoxicity against human HMEC cells assessed as inhibition of cell proliferation measured after 48 hrs by MTT assay; assay type: cell-based
HeLa = assay: Anticancer activity against human HeLa cells assessed as inhibition of cell proliferation measured after 48 hrs by MTT assay; assay type: functional, cell-based
MRC5 = assay: Cytotoxicity against human MRC5 cells assessed as inhibition of cell proliferation measured after 48 hrs by MTT assay; assay type: cell-based; details: MRC5, 48 h
MCF7 = assay: Anticancer activity against human MCF7 cells assessed as inhibition of cell proliferation measured after 48 hrs by MTT assay; assay type: functional, cell-based; details: MCF7, 48 h

Compound	IC50 [1]	IC50 (A549)	IC50 (L02)	IC50 (HepG2)	IC50 (HMEC)	IC50 (HeLa)	IC50 (MRC5)	IC50 (MCF7)
COc1cc([C@@H]2c3cc4c(cc3[C@@H](O[C@@H]3O[C@@H]5CO[C@@H](c6cccs6)O[C@H]5[C@H](O)[C@H]3OC(=O)CSc3nc5cc(F)ccc5s3)[C@H]3COC(=O)[C@H]23)OCO4)cc(OC)c1O	22.5 µM	1.1 µM	18.5 µM	2 µM	13.5 µM	1.5 µM	12.4 µM	3.9 µM
COc1cc([C@@H]2c3cc4c(cc3[C@@H](O[C@@H]3O[C@@H]5CO[C@@H](c6cccs6)O[C@H]5[C@H](O)[C@H]3OC(=O)CSc3nc5cc(F)ccc5o3)[C@H]3COC(=O)[C@H]23)OCO4)cc(OC)c1O	21.3 µM	2.7 µM	17.3 µM	1.7 µM	14.3 µM	1 µM	15.8 µM	4 µM
COc1cc([C@@H]2c3cc4c(cc3[C@@H](O[C@@H]3O[C@@H]5CO[C@@H](c6cccs6)O[C@H]5[C@H](O)[C@H]3NC(=O)CSc3nc5cc(F)ccc5s3)[C@H]3COC(=O)[C@H]23)OCO4)cc(OC)c1O	140 µM	122 µM	156 µM	120 µM	160 µM	134 µM	123 µM	142 µM
COc1cc([C@@H]2c3cc4c(cc3[C@@H](O[C@@H]3O[C@@H]5CO[C@@H](c6cccs6)O[C@H]5[C@H](OC(=O)CSc5nc6cc(F)ccc6s5)[C@H]3O)[C@H]3COC(=O)[C@H]23)OCO4)cc(OC)c1O	17.4 µM	3.5 µM	16.4 µM	2.7 µM	14.3 µM	2.5 µM	14.3 µM	5.6 µM
